In ChEMBL document CHEMBL1132705, “Synthesis and biological activities of spiroheterocyclic growth hormone secretagogues” (Bioorg Med Chem Lett, 1999):

Species on record: Canis familiaris
Experiment: Minimum effective dose required for oral activity in beagles that caused at least five fold elevation of growth hormone (GH) over basal levels
Assay type: functional
Details: Canis lupus familiaris, read-out: MED

| Structure (SMILES) | minimal effective dose [mg/kg] |
| --- | --- |
| CC(C)(N)C(=O)N[C@H](CCCc1ccccc1)C(=O)N1CCC2(CC1)CS(=O)(=O)c1ccccc12.Cl | 0.125 |
| CC(C)(N)C(=O)N[C@H](CCCc1ccccc1)C(=O)N1CCC2(CCc3ccccc32)CC1.Cl | 5 |
| CC(C)(N)C(=O)N[C@H](CCCc1ccccc1)C(=O)N1CCC2(CC1)C[S+]([O-])c1ccccc12.Cl (stereo partly specified) | 0.25 |
| CC(C)(N)C(=O)N[C@H](CCC1CCCCC1)C(=O)N1CCC2(CC1)CS(=O)(=O)c1ccccc12.Cl | 0.25 |

Species on record: Rattus norvegicus
Experiment: Stimulation of growth hormone (GH) release determined in vitro by rat pituitary cell assay.
Assay type: functional
Details: Pituitary gland cell

| Structure (SMILES) | EC50 [nM] |
| --- | --- |
| CC(C)(N)C(=O)N[C@H](CCc1ccccc1)C(=O)N1CCC2(CC1)CSc1ccccc12 | 57 |
| CC(C)(N)C(=O)N[C@H](CCCc1ccccc1)C(=O)N1CCC2(CC1)CSc1ccccc12 | 4.8 |
| CC(C)(N)C(=O)N[C@H](COCc1ccccc1)C(=O)N1CCC2(CC1)CSc1ccccc12 | 10 |
| CC(C)(N)C(=O)N[C@H](COCc1ccccc1)C(=O)N1CCC2(CC1)COc1ccccc12 | 8.5 |
| CC(C)(N)C(=O)N[C@H](CCC1CCCCC1)C(=O)N1CCC2(CCc3ccccc32)CC1 | 21 |
| CC(C)(N)C(=O)N[C@H](Cc1c[nH]c2ccccc12)C(=O)N1CCC2(CC1)CS(=O)(=O)c1ccccc12 | 2.1 |
| CC(C)(N)C(=O)N[C@H](CCCc1ccccc1)C(=O)N1CCC2(CC1)COc1ccccc12 | 2.7 |
| CC(C)(N)C(=O)N[C@H](CCc1ccccc1)C(=O)N1CCC2(CCc3ccccc32)CC1 | 22 |
| CC(C)(N)C(=O)N[C@H](CCCc1ccccc1)C(=O)N1CCC2(CC1)CS(=O)(=O)c1ccccc12.Cl | 1.1 |
| CC(C)(N)C(=O)N[C@H](Cc1c[nH]c2ccccc12)C(=O)N1CCC2(CC1)CSc1ccccc12 | 5.6 |
| CC(C)(N)C(=O)N[C@H](CCC1CCCCC1)C(=O)N1CCC2(CC1)C[S+]([O-])c1ccccc12 (stereo partly specified) | 3.4 |
| CC(C)(N)C(=O)N[C@H](CCCc1ccccc1)C(=O)N1CCC2(CC1)C[S+]([O-])c1ccccc12.Cl (stereo partly specified) | 2 |
| CC(C)(N)C(=O)N[C@H](CCC1CCCCC1)C(=O)N1CCC2(CC1)CS(=O)(=O)c1ccccc12.Cl | 1.4 |
| CC(C)(N)C(=O)N[C@H](CCC1CCCCC1)C(=O)N1CCC2(CC1)CSc1ccccc12 | 8.1 |
| CC(C)(N)C(=O)N[C@H](CCc1ccccc1)C(=O)N1CCC2(CC1)CS(=O)(=O)c1ccccc12 | 6 |
| CC(C)(N)C(=O)N[C@H](COCc1ccccc1)C(=O)N1CCC2(CC1)C[S+]([O-])c1ccccc12 (stereo partly specified) | 8.5 |
| CC(C)(N)C(=O)N[C@H](COCc1ccccc1)C(=O)N1CCC2(CC1)CS(=O)(=O)c1ccccc12 | 5 |
